Assay [1] relates to re-epithelialization of keratinocytes, mouse skin wound model. Kind of assay: Mouse skin wound healing model, re-epithelialization of keratinocytes. The note with it: male BALB/c mice; 6 mm full-thickness wounds; applied once a day; assessed eight days after operation; FIG. 2. Type of assay: in vivo. How it is done:
Wound healing model was prepared in accordance with the method described by Tsuboi, et al. (J. Dermatol., 19, 673–675 (1992)). After backs of male BALB/c mice were shaved, two full-thickness round wounds (6 mm diameter) were prepared on the back of each mouse using a punch biopsy instrument. In medicine-treated group, immediately after the operation, a test compound suspended in 0.01M phosphate-buffered saline containing 1.5% sodium carboxymethyl cellulose (vehicle) was applied to each wound in a volume of 50 μL/wound. From the following day, the compound was repeatedly applied to each wound once a day for 7 days. In the control group, vehicle solution only was applied in the same manner. Eight days after the operation, mice were sacrificed and skin tissues containing wound area were removed. The tissues were fixed with a 10% neutral buffer formalin solution for one day and embedded in paraffin according to the conventional method. The cross-sections were made perpendicularly to the anterior-posterior axis. Keratinocytes in the specimen were stained by immuno histochemical staining method with an anti-keratin antibody after removing paraffin. Measurements of wound size (mm) and re-epithelialization of keratinocytes (mm) were performed by using an image-analyzing software. Re-epithelialization rate(%) of keratinocytes was calculated as follows with regard to each animal. […]

Assay [2] relates to epidermal hyperplasia in mice induced by the application of TPA. Put plainly: TPA-induced epidermal hyperplasia in mouse dorsal skin. The format is in vivo. The note with it: male BALB/c mice; applied to skin 5 min, 24 h and 48 h after TPA; doses 1, 10, 100 μg; skin excised at 72 h; FIG. 1. How it is done: After backs of male BALB/c mice were shaved, 10 μL of a TPA-acetone solution (0.1 mM) was applied to the dorsal skin surface in an area of about 1 cm^2. In the medicine-treated group, a volume of 20 μL of a solution prepared by dissolving the test compound in acetone was applied to the same area 5 minutes, 24 hours and 48 hours after TPA application. In the non-treated group, only TPA was applied. In the control group, acetone was applied instead of the TPA-acetone solution.
The mice were sacrificed and the skin tissues were excised 72 hours after TPA application. Then the tissues were fixed with formalin, the vertical sections including the center of the TPA- or acetone-treated area were prepared and embedded in paraffin according to the conventional method. And they were stained by hematoxylin-eosin after removing paraffin. The epidermal thickness was measured using a microscope.
In FIG. 1, the numeral in the ordinate represents the epidermal thickness (μm). A bar graph of TPA (−) represents the epidermal thickness of the control group and a bar graph of TPA represents the epidermal thickness of the non-treated group. The respective bar graphs of 1, 10 and 100 denote the epidermal thickness of the group wherein the test compound is administered at a dose of 1, 10 and 100 (μg/wound) of each test compound. […]

These results are taken from patent US7223779B2, “Azasugar derivative and drug containing the same as the active ingredient” (Carna Biosciences Inc., priority 2002, dated 2007).

Each structure is given as a SMILES string.

On to `O=C(NO)[C@H]1[C@@H](O)[C@H](O)[C@@H](O)CN1S(=O)(=O)c1ccc(Oc2ccccc2)cc1` [Compound c, (2R,3R,4R,5S)-3,4,5-trihydroxy-1-(4′-phenoxybenzenesulfonyl)-piperidine-2-carboxylic Acid Hydroxamide], for which the “re-epithelialization rate (%) of keratinocytes inhibitory activity” value in assay [1] is “inhibitory activity”. For the same compound, the “hyperplasia inhibitory activity (epidermal thickness)” value in assay [2] is on record as “hyperplasia inhibitory activity”.
